Test results reported in patent US20130324555A1, “Method of use of pharmaceutical formulations for the treatment of apicomplexan diseases in animals” (priority 2012, published 2013).
“Also recorded” adds a separate entry of the source. Read-outs that look alike come from different tables or passages of the source.

Columns and labels:
[1] = test system: RH-YFP tachyzoites; test: Determination of static or cidal effects; format: cell-based, T. gondii; conditions: compound at 1 μM; for static or cidal effect: growth assessed at days 11, 17, 25
Procedure: In order to determine whether leading compounds in this study inhibited parasite proliferation by either a cidal or static mechanism, four were selected (3i, 3j, 7a, and 14a) and applied at four to eight times MICs50 to parasites. In this assay, RH-YFP tachyzoites were treated with each compound at 1 μM under various dosing conditions:
Condition A: Parasites were treated for four days, then compound was removed
Condition B: Parasites were treated for ten days, then compound was removed
Condition C: Compound was refreshed at four days then removed at ten days
Condition D: Compound was maintained for the duration of the experiment
The four and ten day time points were taken to reveal the impact of extended exposure of the parasites to the test substance. Compounds were refreshed at four days to examine whether compound degradation could contribute to an observed static effect. Parasite growth was assessed at days 11, 17, and 25. The growth data, as a function of ^3H-uracil uptake, is expressed in FIG. 7. 4 days, Condition A; 10 days, renewed at 4, Condition B; 10 days, Condition C; All time, Condition D. Ordinate: Counts per minute.
RH-YFP tachyzoites were treated with each compound at 1 μM under one of four conditions: a) parasites were treated for four days, then compound was removed; b) parasites were treated for ten days, then compound was removed; c) compound was refreshed at four days and removed at ten; or d) compound was maintained for the duration of the experiment. The four and ten day time points were taken to reveal the impact of extended exposure of the parasites to the test substance. Compounds were refreshed at four days to examine whether compound degradation could contribute to an observed static effect. Parasite growth was assessed at 11, 17, and 25 days.

[2] = test system: P. falciparum TM90-C235; test: Malaria SYBR Green 1-Based Fluorescence (MSF) Assay, strain TM90-C235; format: cell-based; conditions: for efficacy against TM90-C235 compared with D6 (cross-resistance): D6 versus TM90-C235; for IC50: Plasmodium falciparum; for C235 IC50: multi-drug resistant strain TM90-C235
Procedure: (§1) Compound activity against P. falciparum, the causative agent of malaria, was assessed using the Malaria SYBR Green 1-Based Fluorescence (MSF) Assay. This microtiter plate drug sensitivity assay uses the presence of malarial DNA as a measure of parasitic proliferation. The assay is a microtiter plate drug sensitivity assay that uses the presence of malarial DNA as a measure of parasitic proliferation in the presence of antimalarial drugs or experimental compounds based on modifications of previously described methods (Plouffe et al., Proc Natl Acad Sci USA. 2008, 105, 9059-9064), (Johnson et al., Antimicrob. Agents Chemother. 2005, 49, 3463-3467).
(§2) Selected compounds were examined for activity against two strains of P. falciparum: D6 (CDC/Sierra Leone), a drug-sensitive and readily killed by chloroquine, and TM90-C235, a multi-drug resistant strain resistant to chloroquine.
(§3) D6 (CDC/Sierra Leone) and TM90-C235 (WRAIR, Thailand) laboratory strains of P. falciparum were used for each drug sensitivity assessment. The parasite strains were maintained continuously in long-term cultures as previously described in Johnson et al, and P. falciparum strains in late-ring or early-trophozoite stages were cultured in predosed 384-well microtiter drug assay plates in 38 μl culture volume per well at a starting parasitemia of 0.3% and a hematocrit of 2%. Pre-dosed, sterile, 384 well black optical bottom microtiter drug plates for use in the MSF assay were produced using a Tecan EVO Freedom Liquid Handling System (Tecan US, Durham, N.C.). Dose response plates were produced at a final concentration ranging from 0.5-10000 ng/ml in quadruplicate (twelve two-fold serial dilutions of each test compound or chloroquine control in DMSO. Each run was validated by a batch control plate with chloroquine (Sigma-Aldrich Co., Catalog #C6628) at a final concentration of 2000 ng/ml. The cultures were incubated for 72 hours at 37° C., 5% CO2, 5% O2 and 90% N2. Lysis buffer (38 μl per well), consisting of 20 mM Tris HCl, 5 mM EDTA, 1.6% Triton X, 0.016% saponin, and SYBR green I dye at a 20× concentration (Invitrogen, Catalog #S-7567) was then added to the assay plates utilizing the Tecan EVO Freedom system for a final SYBR Green concentration of 10×. Plates were incubated in the dark at room temperature in the dark for 24 hours.
(§4) Compound activity was assessed by examining for the relative fluorescence units (RFU) per well using the Tecan Genios Plus (Tecan US, Inc., Durham, N.C.). GraphPad Prism (GraphPad Software Inc., San Diego, Calif.) using the nonlinear regression (sigmoidal dose-response/variable slope) equation was used to determine IC50 values.

[3] = test system: P. falciparum D6 (CDC/Sierra Leone); test: Malaria SYBR Green 1-Based Fluorescence (MSF) Assay, strain D6; format: cell-based; conditions: for IC50: Plasmodium falciparum
Procedure: as §1, §2, §3, §4

[4] = Uninfected mice dosed with compound alone (groups of the oocyst study); format: in vivo; conditions: for Day of Death: challenge None; for symptoms of uninfected mice dosed with compound alone: 100 or 25 mg/kg oral gavage
Procedure: Thus, compounds 14a and 14b were tested for efficacy in a mouse model of T. gondii oocyst infection. The oocyst form of the parasite is excreted by cats and is often the form by which people and other animals become infected. This oocyst infection in mice is very virulent, and fatal. Mice were infected by oral gavage with ME49 or TgGoatUS4 oocysts. Mice were treated with either a high dose (100 mg/kg) or low dose (25 mg/kg) of 14a or 14b 1 mL suspension via oral gavage, or were not treated. […] Treatment with 14a and 14b increased survival by 1 day (Table 6, FIGS. 8 and 9).
Five groups of B7 female mice weighing approximately 25 g were used. Group 1 received only 14a (100 mg/kg, 2.5 mg/mL, 1.0 mL) by oral gavage. Group 2 received only 14a (25 mg/kg, 0.5 mg/mL, 1.0 mL) by oral gavage. Group 3 received 14a (100 mg/kg, 2.5 mg/mL, 1.0 mL) and 100 ME49 oocysts by oral gavage. Group 4 received 14a (25 mg/kg, 0.5 mg/mL, 1.0 mL) and 100 ME49 oocysts by oral gavage. Group 5 received only 100 ME49 oocysts by oral gavage.
Five groups of B7 female mice weighing approximately 25 g were used. Group 1 received only 14b (100 mg/kg, 2.5 mg/mL, 1.0 mL) by oral gavage. Group 2 received only 14b (25 mg/kg, 0.5 mg/mL, 1.0 mL) by oral gavage. Group 3 received 14b (100 mg/kg, 2.5 mg/mL, 1.0 mL) and 100 TgGoatUS4 oocysts by oral gavage. Group 4 received 14a (25 mg/kg, 0.5 mg/mL, 1.0 mL) and 100 TgGoatUS4 oocysts by oral gavage. Group 5 received only 100 TgGoatUS4 oocysts by oral gavage.

[5] = TM90, multi-drug resistant strain TM90-C235, read-out: C235 IC50
[6] = D6, chloroquine-sensitive strain D6, read-out: D6 IC50
[7] = D6, chloroquine-sensitive strain D6, read-out: D6 IC50 (molar)
[8] = chloroquine-sensitive strain D6

SMILES	static or cidal effect [1]	efficacy against TM90-C235 compared with D6 (cross-resistance) [2]	IC50 [2, 5] [µg/mL]	C235 IC50 [2] [µg/mL]	IC50 [3, 6] [µg/mL]	IC50 [3, 7] [µM]	D6 IC50 [3, 8] [µg/mL]	duration of treatment after which a cidal effect was shown [1]	IC50 ([2]; TM90, chloroquine resistant strain TM90-C235, read-out: TM90-C235 IC50) [µM]	IC50 ([2]; TM90, read-out: C235 IC50) [µg/mL]	IC50 ([3]; chloroquine-sensitive strain D6, read-out: D6 IC50) [µg/mL]	Day of Death ([4]; 25 mg/kg oral gavage)	Day of Death ([4]; 100 mg/kg oral gavage)	symptoms of uninfected mice dosed with compound alone [4]	IC50 ([3]; D6, read-out: D6 IC50) [µg/mL]
CC(C)(C)c1cccc(NC(=O)c2cc(Cl)ccc2O)c1 [Compound 3i, N-(3-tert-butylphenyl)-5-chloro-2-hydroxybenzamide]	parasitostatic; also recorded: static effect	two-fold higher IC50	> 2	>2	0.957	3	0.9569								
O=C(Oc1ccc(Cl)cc1C(=O)Nc1ccc([N+](=O)[O-])cc1Cl)c1ccccc1 [Compound 7a, 4-chloro-2-((2-chloro-4-nitrophenyl)carbamoyl)phenyl benzoate]	parasitocidal; also recorded: cidal	equally effective	0.267	0.2666	0.295	0.7	0.2946	four days	0.6						
O=C(Nc1cc(C(F)(F)F)cc(C(F)(F)F)c1)c1cc(Cl)ccc1O [Compound 3j]	parasitocidal; also recorded: cidal	equally effective						four days		0.541	0.593				
CN(CC(=O)NN)C(=O)Oc1ccc(Cl)cc1C(=O)Nc1ccc([N+](=O)[O-])cc1Cl.Cl [Compound 14a, 4-chloro-2-((2-chloro-4-nitrophenyl)carbamoyl)phenyl (2-hydrazinyl-2-oxoethyl)(methyl)carbamate hydrochloride]	cidal	equally effective						ten days		1.32		None	None	remained asymptomatic	1.33
CN(CC(=O)NN)C(=O)Oc1ccc(Cl)cc1C(=O)Nc1ccc(C(F)(F)F)cc1C(F)(F)F.Cl [Compound 14b, 2-((2,4-bis(trifluoromethyl)phenyl)carbamoyl)-4-chlorophenyl (2-hydrazinyl-2-oxoethyl)(methyl)carbamate hydrochloride]												None	None	remained asymptomatic	
